According to publication PMC11771932, “Integrated in silico and in vitro exploration of the anti-VEGFR-2 activities of a semisynthetic xanthine alkaloid inhibiting breast cancer” (PLOS ONE, 2025):
Like-named read-outs stand apart in the source and are kept apart here.

Experiments:
human VEGFR-2 = target: T1, human VEGFR-2 (Homo sapiens, UniProt P35968); assay: In vitro VEGFR-2 inhibition (Human VEGFR-2 ELISA kit); assay type: biochemical
T1 construct: MCF- 7 cell line; endogenous in cells; host or cells: MCF-7

MCF7 cells [1] = assay: Apoptosis assay, flow cytometry, Annexin V and PI double staining; assay type: cell-based
Description: The T-1-NBAB’s effect as an apoptotic agent was assessed via flow cytometry analysis, on MCF7 cells using Annexin V and PI double staining.
T-1-NBAB’s apoptotic potentials and effect on MCF7 cell cycle were accomplished by flow cytometry analysis technique.
In-vitro anticancer activity
Anticancer activities of the tested compounds against MCF7 and T47D cell lines were quantified using MTS assay kit (Promega) as described by the Manufacturer.
The selectivity index values of the tested compounds on cancer cells were calculated as described by Koch et al., with slight modifications; SI=IC50nc/IC50cc, where IC50nc: the IC50 value of the tested compound on normal cells and IC50cc: IC50 of the tested compound on cancer cell […]
In vitro EGFR kinase assay
The synthesized compound was estimated for their in vitro inhibition on human VEGFR-2 in MCF- 7 cell line; using ELISA kit. Firstly, a plate was used for the assay had been coated by an […]
2 inhibitor. Both standard and sample were added to the wells and incubated overnight at 4 ◦C, then washed. The biotinylated antibody was supplemented and further incubated for 1 h at room temperature. The unreacted, liberated antibody was then washed; followed by addition of HRP-conjugated streptavidin and incubated for 45 min at room temperature. Wells were washed and a TMB substrate solution was added and kept at room temperature for 30 min. Finally, the stop solution was added, and the intensity of the color produced was measured at 450 nm.
Concentration- inhibition response curve was established by GraphPad Prism 5.0. The IC 50 value was calculated as the concentration at which 50% of the cells could survive in comparison to […]
Flow cytometry analysis for apoptosis
Flow cytometry cell apoptosis analysis was used to investigate the apoptotic effect of the synthesized compound. […] The stained cells were measured using Epics XL-MCL™ Flow Cytometer and analyzed […]

T47D cell line = assay: In vitro cytotoxicity, T47D; assay type: cell-based
Description: (§1) The potential of T-1-NBAB as an anticancer agent has been highlighted through both in silico and in vitro studies, primarily due to its anti-VEGFR-2 properties. To further investigate T-1-NBAB’s cytotoxicity, it was tested against breast carcinoma epithelial cancer cell lines MCF7 and T47D.
(§2) The cytotoxic potential of T-1-NBAB against MCF7 and T47D cell lines was accomplished by MTT procedure.
(§3) Mammalian cell lines culture
(§4) MCF7 and T47D cell lines were cultured on DMEM media. The cultured media were supplemented with 200 mM L-glutamine, 10.0% fetal bovine serum (Lonza), and 1.0% penicillin/streptomycin. Cells were seeded into 25.0 cm tissue culture flasks and incubated at 37◦C in a 5.0% CO2 incubator for 24 h or till confluency.
(§5) The safety profiles of the tested compounds were checked on one non-cancerous cell line (vero) […]
(§6) A portion of 100.0 µl of 6×10^4 cell/ml cells was seeded into each well of a 96-well plate and then the plates were incubated at 37 °C in a humidified 5.0% CO2 incubator for 24 h. […]
(§7) The inoculated plates were incubated at the same growth conditions for another 24 h. At the end of incubation, cellular viability was assessed using MTS assay kit (Promega) according to […]
(§8) Anticancer activities of the tested compounds against MCF7 and T47D cell lines were quantified using MTS assay kit (Promega) as described by the Manufacturer. […]

[2] = tested on: Vero (normal epithelial) cell lines; assay: Safety assay on non-cancerous Vero cells; assay type: cell-based; details: Chlorocebus sabaeus, read-out: IC50 against Vero
Description: as §1
The cytotoxic potential of T-1-NBAB against non-cancerous (Vero) cell lines was accomplished by MTT procedure.
as §3, §4, §5
A portion of 100.0 µl of 6×10^4 cell/ml cells was seeded into each well of a 96-well plate and then the plates were incubated at 37 °C in a humidified 5.0% CO2 incubator for 24 h. At the end of incubation period, the exhausted medium was replaced with 100.0 µl of different concentrations of the designated treatment (prepared in RPMI medium starting from 1.0 mM).
as §7

MCF7 cell line = assay: In vitro cytotoxicity, MCF7; assay type: cell-based
Description: as §1, §2, §3, §4, §5, §6, §7, §8

MCF7 cells [3] = assay: Wound healing and migration assay; assay type: cell-based
Description: The wound healing assay, a simple and cost-effective procedure, can assess the mobility and repair capacity of cancerous cells. In this method, a scratch is created on a layer of cancer cells, and the initial width is recorded. The healing of the scratch was observed periodically for both untreated and treated cells. Throughout the study, images of the scratched areas from both groups were compared at the 0-hour and 48-hour time points.
Wound healing assay was accomplished for T-1-NBAB utilizing MCF7 cell lines. […]
Wound healing and migration assay
The wound healing assay allows the researcher to study cell migration and cell interactions. In […]
some cases also single cell migration can be analyzed and this assay can be imaged […]
1. Cells were seeded in 6 multi-well plates and cultured until confluent. It is important that all the cultures are confluent at the start of the experiment.
2. (yellow) pipette tip was used to make a straight scratch, simulating a wound. Often we make a scratch keeping the pipette tip under an angle of around 30 degrees to keep the scratch width limited. This allows imaging of both wound edges using the 10x objective.
The following equations are applied to calculate the healing and migration ratio Rat of migration (RM) = (wi – wf ) / t
Wi =average of intial wound width um
Wf= average of final wound width um
T = time span of the assay in hours
Percentage of wound clouser % ={ (At=0 – At=∆t ) / At=0 } 100 […]
At=∆t = wound area after n hours
Area difference % = (Ai – Af )

Rat [4] = details: structural similar compounds of the TOPKAT report; ref NCI/NTP TR-358, NCI/NTP TR-138, NCI/NTP TR-336; cited from earlier work
Rat [5] = details: cited from earlier work
Mouse = tested on: Mouse; design: method as in earlier work; details: structural similar compounds of the TOPKAT report; ref CPDB; cited from earlier work
Rats = details: structural similar compounds of the TOPKAT report; ref NIIRDN 6;688;82, 85ARAE 4;118;76/77, DRFUD4 2;393;77, YRTMA6 9;11;78, FMCHA2 -;C149;89, ARZNAD 30;2023;80; cited from earlier work
VEGFR-2 = tested on: VEGFR-2; design: method as in PMID 35493991; details: read-out: VEGFR-2 inhibition IC50; cited from earlier work
[6] = structural similar compounds of the TOPKAT report, ref CPDB

T1 sequence (P35968 20-1356): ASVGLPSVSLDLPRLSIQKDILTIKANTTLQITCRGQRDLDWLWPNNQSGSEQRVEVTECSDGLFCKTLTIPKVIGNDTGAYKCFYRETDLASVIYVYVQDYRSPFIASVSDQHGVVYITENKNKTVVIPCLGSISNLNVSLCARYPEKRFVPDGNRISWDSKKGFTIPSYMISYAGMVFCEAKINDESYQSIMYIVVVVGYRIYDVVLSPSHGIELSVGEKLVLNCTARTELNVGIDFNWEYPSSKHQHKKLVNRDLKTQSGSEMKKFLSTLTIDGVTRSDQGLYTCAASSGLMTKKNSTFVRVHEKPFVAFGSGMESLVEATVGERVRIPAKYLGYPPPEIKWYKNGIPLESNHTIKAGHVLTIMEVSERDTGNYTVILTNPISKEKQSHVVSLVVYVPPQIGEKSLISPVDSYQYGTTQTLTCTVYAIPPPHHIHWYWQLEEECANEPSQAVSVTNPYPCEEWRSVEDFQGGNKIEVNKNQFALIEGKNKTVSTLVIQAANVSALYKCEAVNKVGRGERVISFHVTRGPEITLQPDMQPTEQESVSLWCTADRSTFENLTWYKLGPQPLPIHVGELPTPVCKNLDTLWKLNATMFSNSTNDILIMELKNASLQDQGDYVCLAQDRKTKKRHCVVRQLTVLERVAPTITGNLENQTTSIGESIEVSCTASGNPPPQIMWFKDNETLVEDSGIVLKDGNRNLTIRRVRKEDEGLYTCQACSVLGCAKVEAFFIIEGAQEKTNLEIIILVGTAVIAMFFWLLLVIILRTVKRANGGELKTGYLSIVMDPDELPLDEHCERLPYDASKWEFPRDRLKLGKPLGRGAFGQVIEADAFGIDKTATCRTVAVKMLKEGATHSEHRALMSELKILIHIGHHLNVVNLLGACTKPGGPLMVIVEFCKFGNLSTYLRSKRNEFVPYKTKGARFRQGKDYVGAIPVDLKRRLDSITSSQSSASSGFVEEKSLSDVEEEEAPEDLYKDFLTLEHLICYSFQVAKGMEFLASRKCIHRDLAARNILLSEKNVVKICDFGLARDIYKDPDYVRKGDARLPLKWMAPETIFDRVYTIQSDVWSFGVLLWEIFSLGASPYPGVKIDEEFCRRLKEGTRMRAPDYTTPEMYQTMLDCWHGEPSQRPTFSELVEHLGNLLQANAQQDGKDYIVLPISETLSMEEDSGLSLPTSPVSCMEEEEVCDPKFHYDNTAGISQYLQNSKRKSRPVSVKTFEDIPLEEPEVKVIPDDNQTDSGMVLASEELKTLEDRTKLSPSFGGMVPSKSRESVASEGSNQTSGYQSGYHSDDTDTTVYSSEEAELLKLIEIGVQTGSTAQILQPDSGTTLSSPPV

Cn1cnc2c1c(=O)n(CC(=O)Nc1ccc(C(=O)NCc3ccccc3)cc1)c(=O)n2C [T-1-NBAB]
IC50 (human VEGFR-2): 0.115 µM | Apoptosis Late (MCF7 cells [1]; control 0.12): 2.88% | Apoptosis Early (MCF7 cells [1]; control 0.72): 3.51% | Necrosis (MCF7 cells [1]; control 2.21): 9.37% | IC50 (T47D cell line; Homo sapiens, breast cancer cell line T47D, read-out: IC50 against T47D): 61.2 µM | Selectivity index (SI) against T47D (T47D cell line; IC50 normal cells (Vero) / IC50 T47D): 1.1 | IC50 [2]: 68.4 µM | IC50 (MCF7 cell line; Homo sapiens, breast cancer cell line MCF7, read-out: IC50 against MCF7): 16.9 µM | Selectivity index (SI) against MCF7 (MCF7 cell line; IC50 normal cells (Vero) / IC50 MCF7): 4.1 | area difference (MCF7 cells [3]; 0 h vs 48 h, control 659.8333): 112 µm² | RM (rate of migration) (MCF7 cells [3]; 48 h, control 13.74681): 2.322 µm/h | Wound closure % (MCF7 cells [3]; 48 h, control 65.96135): 12.16% | Scratch area at 0h (MCF7 cells [3]; mean of five values): 917 | Scratch area at 48 h (MCF7 cells [3]; mean of five values): 805.5 | Scratch width at 0h (MCF7 cells [3]; mean of five values): 916.0155 | Scratch width at 48 h (MCF7 cells [3]; mean of five values): 804.5532 | Reduction of scratch width after 48 hours (MCF7 cells [3]; untreated control closed 65.9%): 12%

C[C@@H]1Cc2c(Cl)cc(C(=O)N[C@@H](Cc3ccccc3)C(=O)O)c(O)c2C(=O)O1 [OCHRATOXIN]
Rat maximum tolerated dose gavage, Actual Endpoint (-log C) (Rat [4]): 6.284 -log C

C[C@@H]1Cc2c(Cl)cc(C(=O)N[C@@H](Cc3ccccc3)C(=O)O)c(O)c2C(=O)O1 [Ochratoxin A]
Carcinogenic potency TD50 rat, Actual Endpoint (-log C) (Rat [5]; [6]): 6.473 -log C | Carcinogenic potency TD50 mouse, Actual Endpoint (-log C) (Mouse): 4.799 -log C

COC(=O)Nc1nc2ccccc2n1C(=O)NCCCCCC#N [CARBAMIC ACID; [1-[(5-CYANOPENTYL)CARBAMOYL]BENZIMIDAZOL-2-YL]-; METHYL ESTER]
Rat oral LD50, Actual Endpoint (-log C) (Rats): 2.12 -log C

NS(=O)(=O)c1cc(C(=O)O)cc(N2CCCC2)c1Oc1ccccc1 [PIRETANIDE]
Rat oral LD50, Actual Endpoint (-log C) (Rats): 1.811 -log C

Cc1nc2ccccc2n(CC(=O)Nc2ccc(C(=O)Nc3cccc(Cl)c3)cc2)c1=O [compound V]
IC50 (VEGFR-2): 0.0027 µM

CC1(C)S[C@@H]2[C@H](NC(=O)COc3ccccc3)C(=O)N2[C@H]1C(=O)O [[…]]
Rat maximum tolerated dose gavage, Actual Endpoint (-log C) (Rat [4]): 2.545 -log C

CC(C)(Oc1ccc(CCNC(=O)c2ccc(Cl)cc2)cc1)C(=O)O [BEZAFIBRATE]
Rat oral LD50, Actual Endpoint (-log C) (Rats): 1.946 -log C

CC(C)n1c(/C=C/C(O)CC(O)CC(=O)O)c(-c2ccc(F)cc2)c2ccccc21 (stereo not drawn) [Fluvastatin, reference compound]
Carcinogenic potency TD50 rat, Actual Endpoint (-log C) (Rat [5]): 3.517 -log C

O=[N+]([O-])c1ccc(-c2nc(N(CCO)CCO)c3ccccc3n2)s1 [4-Bis(2-hydroxyethyl)amino-2-(5-nitro-2-thienyl)quinazoline]
Carcinogenic potency TD50 rat, Actual Endpoint (-log C) (Rat [5]; [6]): 5.06 -log C

Cc1cccc(Nc2cc(Cl)nc(SCC(=O)NCCO)n2)c1C [4-Chloro-6-(2,3-xylidino)-2-pyrimidinylthio(N-b-hydroxyethyl) acetamide]
Carcinogenic potency TD50 mouse, Actual Endpoint (-log C) (Mouse): 3.915 -log C

COC(=O)Nc1nc2cc(C(=O)c3ccc(F)cc3)ccc2[nH]1 [FLUBENDAZOLE]
Rat oral LD50, Actual Endpoint (-log C) (Rats): 2.088 -log C

Cc1noc(NS(=O)(=O)c2ccc(N)cc2)c1C [SULFISOOXAZOLE]
Rat maximum tolerated dose gavage, Actual Endpoint (-log C) (Rat [4]): 2.825 -log C
